ChEMBL document CHEMBL1765088, “5-Benzamidoisoquinolin-1-ones and 5-(ω-carboxyalkyl)isoquinolin-1-ones as isoform-selective inhibitors of poly(ADP-ribose) polymerase 2 (PARP-2)” (J Med Chem, 2011)
Where “and” joins values, the source holds several entries; their conditions need not be identical. Equal values may be shown once. Each block holds one compound with its values, some of them ahead of it.

Columns and labels:
[1] = target: Poly [ADP-ribose] polymerase 1 (Homo sapiens, UniProt P09874); experiment: Inhibition of full length human PARP-1 after 10 mins by FlashPlate scintillation proximity assay
Poly [ADP-ribose] polymerase 1, sequence (P09874 whole entry): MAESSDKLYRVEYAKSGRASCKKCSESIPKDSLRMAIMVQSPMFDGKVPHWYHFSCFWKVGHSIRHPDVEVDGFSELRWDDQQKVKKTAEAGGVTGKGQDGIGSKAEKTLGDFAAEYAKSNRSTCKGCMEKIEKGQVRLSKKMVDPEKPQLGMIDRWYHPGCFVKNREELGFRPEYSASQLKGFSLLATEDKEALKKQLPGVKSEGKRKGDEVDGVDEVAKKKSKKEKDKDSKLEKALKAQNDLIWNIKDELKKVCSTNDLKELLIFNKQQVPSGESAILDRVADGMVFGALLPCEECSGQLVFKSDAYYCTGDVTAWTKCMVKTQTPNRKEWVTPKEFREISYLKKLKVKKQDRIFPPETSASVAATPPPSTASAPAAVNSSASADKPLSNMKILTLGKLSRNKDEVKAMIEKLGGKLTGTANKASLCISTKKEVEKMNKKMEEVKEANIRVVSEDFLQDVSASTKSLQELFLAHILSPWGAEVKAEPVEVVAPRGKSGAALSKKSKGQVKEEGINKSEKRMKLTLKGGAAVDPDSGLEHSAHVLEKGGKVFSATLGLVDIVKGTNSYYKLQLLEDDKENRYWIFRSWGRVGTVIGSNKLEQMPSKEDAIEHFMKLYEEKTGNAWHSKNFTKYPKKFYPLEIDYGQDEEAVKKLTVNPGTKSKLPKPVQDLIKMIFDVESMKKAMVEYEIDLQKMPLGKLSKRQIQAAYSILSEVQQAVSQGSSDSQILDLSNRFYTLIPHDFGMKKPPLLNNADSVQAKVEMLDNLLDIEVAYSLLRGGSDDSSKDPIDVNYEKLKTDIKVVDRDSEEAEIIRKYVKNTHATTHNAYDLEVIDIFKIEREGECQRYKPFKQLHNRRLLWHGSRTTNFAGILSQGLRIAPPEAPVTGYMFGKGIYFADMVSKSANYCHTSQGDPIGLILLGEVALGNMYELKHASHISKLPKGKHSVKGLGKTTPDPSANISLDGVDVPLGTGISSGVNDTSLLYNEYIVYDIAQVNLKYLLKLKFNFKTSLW

[2] = target: Poly [ADP-ribose] polymerase 2 (Mus musculus, UniProt O88554); experiment: Inhibition of recombinant full length mouse PARP-2 after 10 mins using [3H]NAD+ by solution-phase assay
Poly [ADP-ribose] polymerase 2, sequence (O88554 whole entry): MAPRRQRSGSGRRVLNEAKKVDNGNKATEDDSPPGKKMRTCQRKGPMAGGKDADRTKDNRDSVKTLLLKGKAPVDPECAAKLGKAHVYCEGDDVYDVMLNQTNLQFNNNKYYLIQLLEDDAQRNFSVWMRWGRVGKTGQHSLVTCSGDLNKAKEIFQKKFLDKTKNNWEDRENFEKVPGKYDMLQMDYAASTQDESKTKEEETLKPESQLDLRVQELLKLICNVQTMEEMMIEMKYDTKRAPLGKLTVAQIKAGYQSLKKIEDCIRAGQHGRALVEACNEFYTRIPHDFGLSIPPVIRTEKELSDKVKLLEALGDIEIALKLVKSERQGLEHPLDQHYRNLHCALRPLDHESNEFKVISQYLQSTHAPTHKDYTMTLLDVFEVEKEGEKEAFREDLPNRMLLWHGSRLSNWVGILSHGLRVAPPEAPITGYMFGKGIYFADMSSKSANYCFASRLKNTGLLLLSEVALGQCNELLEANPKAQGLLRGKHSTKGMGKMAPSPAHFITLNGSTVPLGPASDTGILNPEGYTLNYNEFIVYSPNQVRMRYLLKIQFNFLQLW

[3] = target: PARP (mixed cellular PARPs); experiment: Inhibition of mixed PARPs from broken cell nuclei by broken nuclei assay
[4] = target: PARP (mixed cellular PARPs); experiment: as above; remark: listed apart in the source
[5] = Selectivity for recombinant full length mouse PARP-2 over full length human PARP-1
HT-29 = experiment: Growth inhibition of human HT-29 cells after 7 days by MTS assay; conditions: HT-29, 168 h
MDA-MB-231 = experiment: Growth inhibition of human MDA-MB-231 cells after 7 days by MTS assay; conditions: MDA-MB-231, 168 h
[6] = Growth inhibition of human FEK4 cells after 7 days by MTS assay; conditions: FEK4, 168 h
LNCaP = experiment: Growth inhibition of human LNCAP cells after 7 days by MTS assay; conditions: 168 h
[7] = Selectivity ratio, ratio of IC50 for full length human PARP-1 to IC50 for recombinant full length mouse PARP-2
CT26 = experiment: Inhibition of mouse CT26 cell proliferation at 1 mM; format: functional

IC50 [1]: > 25 µM
IC50 [2]: > 25 µM
IC50 [3]: < 13 µM
IC50 [4]: < 13 µM
SMILES: O=C(O)c1cccc2c(=O)[nH]ccc12

Ratio [5]: 12
SMILES: N#Cc1ccc(-c2cnc3cccc(C(N)=O)c3n2)cc1

IC50 [1]: > 80 µM
IC50 [2]: 27.9 µM
IC50 (HT-29): > 200 µM
IC50 (MDA-MB-231): > 200 µM
IC50 (LNCaP): > 200 µM
SMILES: O=C(Nc1cccc2c(=O)[nH]ccc12)C1CCCCC1
IC50 [6]: > 200 µM

IC50 [2]: 0.09 µM
SMILES: NC(=O)c1cccc2nc(-c3ccc(Cl)cc3)cnc12

Ratio [5]: 16
SMILES: O=C(Oc1cccc2c1CCNC2=O)c1ccccc1

IC50 [2]: 0.55 µM
SMILES: O=C(O)CNc1cccc2c(=O)[nH]ccc12

IC50 [2]: 7 µM
SMILES: O=C(Nc1cccc2c(=O)[nH]ccc12)c1cccs1

IC50 [2]: 3.2 µM
SMILES: O=C(Nc1cccc2c(=O)[nH]ccc12)c1ccccc1I

IC50 [2]: 6.5 µM
SMILES: Cc1ccc(C(=O)Nc2cccc3c(=O)[nH]ccc23)cc1

IC50 [2]: 1.5 µM
IC50 (HT-29): > 200 µM
IC50 (MDA-MB-231): 139 µM
IC50 (LNCaP): 98 µM
SMILES: O=C(Nc1cccc2c(=O)[nH]ccc12)c1ccccc1
IC50 [6]: > 200 µM

IC50 [1]: > 50 µM
IC50 [2]: 19.9 µM
IC50 (HT-29): > 200 µM
IC50 (MDA-MB-231): > 200 µM
IC50 (LNCaP): 42 µM
SMILES: O=C(Nc1cccc2c(=O)[nH]ccc12)C12CC3CC(CC(C3)C1)C2
IC50 [6]: > 200 µM

IC50 [1]: > 100 µM
IC50 [2]: 29 µM
Ratio IC50 [7]: > 3.4
IC50 (HT-29): > 200 µM
IC50 (MDA-MB-231): > 200 µM
IC50 (LNCaP): > 200 µM
SMILES: CC(C)(C)C(=O)Nc1cccc2c(=O)[nH]ccc12
IC50 [6]: > 200 µM

IC50 [2]: 5.6 µM
SMILES: Cc1ccccc1C(=O)Nc1cccc2c(=O)[nH]ccc12

IC50 [2]: 1.3 µM
SMILES: O=C(Nc1cccc2c(=O)[nH]ccc12)c1ccc(I)cc1

IC50 [2]: 3 µM
SMILES: O=C(O)CCc1cccc2c(=O)[nH]ccc12

Ratio IC50 [7]: 2.75
Ratio [5]: 60
SMILES: O=C(Oc1cccc2c(O)nccc12)c1ccccc1

IC50 [2]: 3.6 µM
SMILES: O=C(Nc1cccc2c(=O)[nH]ccc12)c1ccc(F)cc1

IC50 [2]: 1.6 µM
SMILES: Nc1cccc2c(=O)n(CCC(=O)O)ccc12

IC50 [2]: 3.9 µM
SMILES: O=C(Nc1cccc2c(=O)[nH]ccc12)c1ccc(Cl)cc1

IC50 [1]: 0.94 µM and 1 µM
IC50 [2]: 1.05 µM and 1 µM
Ratio IC50 [7]: 0.9
IC50 (HT-29): > 200 µM
IC50 (MDA-MB-231): 170 µM
IC50 (LNCaP): > 200 µM
SMILES: Nc1cccc2c(=O)[nH]ccc12
IC50 [6]: > 200 µM
inhibition at 1000 µM (CT26): 40%

IC50 [2]: 1.6 µM
SMILES: O=C(Nc1cccc2c(=O)[nH]ccc12)c1ccc([N+](=O)[O-])cc1

IC50 [2]: 4.7 µM
IC50 [4]: < 11 µM
SMILES: O=C(O)/C=C/c1cccc2c(=O)[nH]ccc12

IC50 [2]: 6.3 µM
SMILES: Cc1cc2c(NC(=O)c3ccccc3)cccc2c(=O)[nH]1

IC50 [2]: 3.3 µM
SMILES: O=C(Nc1cccc2c(=O)[nH]ccc12)c1ccc(C(F)(F)F)cc1

IC50 [1]: 4.1 µM
IC50 [2]: 1.5 µM
SMILES: O=C(Oc1cccc2c(=O)[nH]ccc12)c1ccccc1

SMILES: O=c1[nH]c(CCCCN2CC=C(c3ccc(F)cc3)CC2)nc2c(Cl)cccc12
IC50 [2]: 0.5 µM
